# According to patent publication US10226471B2, “Modified-release dosage forms of 5-HT2C agonists useful for weight management” (Arena Pharmaceuticals, Inc., priority 2010, dated 2019):
# Experiment: Dynamic moisture-sorption (DMS)
# Format: physicochemical
# Conditions: for hygroscopicity by DMS: isotherm 25° C.
# Experimental: Dynamic moisture-sorption (DMS) studies were conducted using a dynamic moisture-sorption analyzer, VTI Corporation, SGA-100, equipment #0228. Samples were prepared for DMS analysis by placing 5 mg to 20 mg of a sample in a tared sample holder. The sample was placed on the hang-down wire of the VTI balance. A drying step was run, typically at 40° C. and 0.5-1% RH for 1-2 h. The isotherm temperature is 25° C. Defined % RH holds typically ranged from 10% RH to 90% RH or 95% RH, with intervals of 10 to 20% RH. A % weight change smaller than 0.010% over a specified number of minutes (typically 10-20), or up to 2 h, whichever occurs first, is required before continuing to the next % RH hold. The water content of the sample equilibrated as described above was determined at each % RH hold.
# [1] = out to and including the 90% RH hold at 25° C.
Compound,hygroscopicity by DMS,"hygroscopicity by DMS (listed as Compound 1 Hydrochloride Salt Hemihydrate, Form III)",water adsorbed in DMS [1],DMS weight gain at 90% RH [1],"DMS weight gain at 90% RH (out to and including the 90% RH hold at 25° C., Form I)"
C[C@H]1CNCCc2ccc(Cl)cc21.C[C@H]1CNCCc2ccc(Cl)cc21.Cl.Cl.O,substantially non-hygroscopic,FIG. 4: non-hygroscopic,less than 0.5 wt %,–,–
C[C@H]1CNCCc2ccc(Cl)cc21.C[C@H]1CNCCc2ccc(Cl)cc21.O=S(=O)(O)c1cccc2c(S(=O)(=O)O)cccc12 [Compound 1 heminapadisilate salt],non-hygroscopic,–,–,about 0.68%,FIG. 31: ~0.68% weight gain at about 90% RH
